Measurements as given in ChEMBL document CHEMBL1138760, “Conformationally constrained analogues of diacylglycerol (DAG). 23. Hydrophobic ligand-protein interactions versus ligand-lipid interactions of DAG-lactones with protein kinase C (PK-C)” (J Med Chem, 2004).

How the values were obtained:
[1] = target: Protein kinase C delta type (Homo sapiens, UniProt Q05655); test: Binding affinity for isolated C1b domain of protein kinase C-delta
[2] = Binding affinity for protein kinase C-alpha C1a and C1b domains

Chain of Protein kinase C delta type (Q05655 whole entry, the tested form may be a part): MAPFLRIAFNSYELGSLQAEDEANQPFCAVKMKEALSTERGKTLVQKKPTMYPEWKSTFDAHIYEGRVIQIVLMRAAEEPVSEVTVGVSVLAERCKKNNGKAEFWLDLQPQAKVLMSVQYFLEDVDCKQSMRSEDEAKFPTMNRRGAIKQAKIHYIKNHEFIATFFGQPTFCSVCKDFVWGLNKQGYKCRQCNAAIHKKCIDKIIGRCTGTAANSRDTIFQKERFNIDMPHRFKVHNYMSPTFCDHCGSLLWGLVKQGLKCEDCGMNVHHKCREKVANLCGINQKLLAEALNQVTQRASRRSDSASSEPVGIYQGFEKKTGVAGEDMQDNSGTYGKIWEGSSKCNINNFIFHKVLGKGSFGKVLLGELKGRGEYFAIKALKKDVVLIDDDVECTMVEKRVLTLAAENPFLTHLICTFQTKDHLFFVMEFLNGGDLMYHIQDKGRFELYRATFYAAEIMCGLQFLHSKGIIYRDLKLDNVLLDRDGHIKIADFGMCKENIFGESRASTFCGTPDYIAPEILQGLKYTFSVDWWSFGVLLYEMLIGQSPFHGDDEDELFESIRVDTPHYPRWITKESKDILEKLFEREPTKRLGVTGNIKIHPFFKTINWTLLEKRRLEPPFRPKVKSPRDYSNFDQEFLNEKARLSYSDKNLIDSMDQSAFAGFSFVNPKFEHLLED

SMILES | Ki [1] [nM] | Ki [2] [nM]
CC(C)C(C/C=C1/C(=O)OC(CO)(COC(=O)C(C)(C)C)C1(C)C)C(C)C (stereo not drawn) | 3470 | –
CC(C)C(C/C=C1\C(=O)OC(CO)(COC(=O)C(C)(C)C)C1(C)C)C(C)C (stereo not drawn) | 1460 | –
CC(C)C(C/C=C1/CC(CO)(COC(=O)C(C)(C)C)OC1=O)C(C)C (stereo not drawn) | – | 8.32
CC(C)CC(C/C=C1/CC(CO)(COC(=O)C(C)(C)C)OC1=O)CC(C)C (stereo not drawn) | 1.16 | 2.9
CC(C)CC(C/C=C1\CC(CO)(COC(=O)C(C)(C)C)OC1=O)CC(C)C (stereo not drawn) | 0.9 | 3.25
CC(C)C(C/C=C1\CC(CO)(COC(=O)C(C)(C)C)OC1=O)C(C)C (stereo not drawn) | – | 11.2
